Measurements: patent US20260000642A1 (Tay Therapeutics Limited, priority 2022, published 2026)
One block for each molecule: values may come before it.

Legend:
BRD4 BD2 = molecular target: T1, BRD4 BD2 (Homo sapiens, UniProt O60885); assay: NanoBRET bromodomain assay, NanoLuc-BRD4-BD2 fusion vector in HEK293 cells; type: cell-based; settings: for BRD4 BD2% Activity Remaining @ 10 uM: first and second (2) batches; for Fold selectivity: IC50 for BRD4 BD1 divided by IC50 for BRD4 BD2, qualitative if an IC50 is at the upper limit; for IC50: NanoBRET, HEK293 cells, top concentration 10 μM
T1 construct: HEK293 cells were transfected using NanoLuc-BRD4-BD1 or NanoLuc-BRD4-BD2 fusion vectors; host or cells: HEK293
Source text: (§1) Bromodomain Assay Procedure

[1] = Sprague-Dawley rat pharmacokinetics (IV and PO); type: in vivo; settings: male Sprague-Dawley rats, cassette mode, Method 1; for IV T1/2: IV 1 mg/kg; for PO F (%) / bioavailability: PO 5 mg/kg (IV 1 mg/kg); for bioavailability: rat, plasma, read-out: PO F (%)
Source text: BET protein inhibitors with a long half-life and good oral bioavailability in in vivo DMPK parameters are promising oral drug candidates. Some of the exemplary compounds of the current disclosure have a long half-life and good oral bioavailability in in vivo DMPK parameters in the Sprague-Dawley rat following intravenous (IV) and oral (PO) dosing. The experimental methods and results (Table 5) are provided hereinafter.
Sprague-Dawley Rat Pharmacokinetics, Method 1
Compounds were formulated in 5% DMSO, 40% PEG-400, 55% Milli-Q water at a concentration of 0.2 mg/mL for IV and at 0.5 mg/mL for PO. Two male Sprague-Dawley rats per arm were dosed with up to 5 compounds in cassette mode, which each compound being dosed at 1 mg/kg IV and 5 mg/kg PO. Blood was sampled at various timepoints and plasma isolated. 50 μL of plasma with 5 μL of blank Sprague-Dawley rat plasma were added to 200 μL of acetonitrile containing IS mixture. The samples were vortexed for 30 s. After centrifugation at 4 degrees Celsius, 3900 rpm for 15 min, the supernatant was diluted 3 times with water. 20 μL of diluted supernatant was injected into the LC/MS/MS system for quantitative analysis and concentration of analyte determined by comparison with matrix matched standard curve. WinNonlin (Phoenix™, version 8.3) or other similar software may be used for pharmacokinetic calculations.

[2] = Plasma stability assay, rat plasma; type: in vitro ADME; settings: 37° C., Method 2 (10 μM)
Description: Exemplary compounds of the disclosure are stable upon incubation in mouse plasma. Stability is expressed as a % remaining after 120 minutes. The experimental methods and results (Table 2) are provided hereinafter.
Plasma Stability Assay, Method 1
From stock solution of compound in 10 mM DMSO, a working solution of 1 mM is prepared by diluting the compound in DMSO. To 398 μL of plasma pre-warmed at 37° C. for 15 minutes), 2 μL of working solution of compound is added, resulting in a final concentration of 5 μM (0.5% DMSO) for the compound. The sample is then incubated at 37° C. Aliquot is withdrawn at specified time-points (0, 15, 30, 60 and 120 mins). The reaction is stopped by addition of 450 μL cold acetonitrile containing internal standard (IS). […] Aliquots of the supernatant is analysed using LC-MS/MS. The percent remaining of the compound at each time point is calculated with respect to the control sample (0 min time-point).
Plasma Stability Assay, Method 2
A working solution of compound (500 μM) is prepared in DMSO (100%). To 735 μL of plasma, 15 μL of working solution of compound is added—resulting in a final concentration of 10 μM (2% DMSO) for the compound. The sample is then incubated at 37° C. Aliquot is withdrawn at time-points—0, 15, 30, 60, 90 and 120 mins. The reaction is stopped by using chilled acetonitrile containing internal standard (IS). The samples are centrifuged and the supernatants analyzed using LC-MS/MS. The percent remaining of the compound at each time point is calculated with respect to the control sample (0 min time-point).

BRD4 BD1 = molecular target: T2, BRD4 BD1 (Homo sapiens, UniProt O60885); assay: NanoBRET bromodomain assay, NanoLuc-BRD4-BD1 fusion vector in HEK293 cells; type: cell-based; settings: top concentration 10 μM
T2 construct: HEK293 cells were transfected using NanoLuc-BRD4-BD1 or NanoLuc-BRD4-BD2 fusion vectors; host or cells: HEK293
Source text: as §1

SMILES: CCNC(=O)c1cc(OC(C)c2ccccn2)c(C(=O)NC)[nH]1 (racemic) [Example 96, N^5-ethyl-N^2-methyl-3-(1-(pyridin-2-yl)ethoxy)-1H-pyrrole-2,5-dicarboxamide]
BRD4 BD2% Activity Remaining @ 10 uM (BRD4 BD2; listed as 96 (2)): 64% | Fold selectivity (BRD4 BD2; listed as 96(2)*): — (Fold ≥0 and ≤2)

SMILES: CNC(=O)c1[nH]c(C(=O)N[C@@H]2CC[C@@H](O)C2)cc1O[C@@H](C)c1ccccc1 (racemic) [Example 116, N^5-(trans-3-hydroxycyclopentyl)-N^2-methyl-3-((S)-1-phenylethoxy)-1H-pyrrole-2,5-dicarboxamide]
IC50 (BRD4 BD2): 0.05 to 0.2 µM

SMILES: CNC(=O)c1[nH]c(C(=O)NC2CCC2)cc1OC(C)c1ccc(Cl)cc1 (single isomer, unassigned) [Example 27, 3-(1-(4-chlorophenyl)ethoxy)-N^5-cyclobutyl-N^2-methyl-1H-pyrrole-2,5-dicarboxamide]
IV T1/2 [1]: 24 min | PO F (%) [1]: 47% | Plasma Stability (% remaining at 120 minutes) Rat [2]: 47%

SMILES: CNC(=O)c1[nH]c(C(=O)NC2CCC2)cc1OC(C)c1ccc(Cl)cc1 (single isomer, unassigned) [Example 28, 3-(1-(4-chlorophenyl)ethoxy)-N^5-cyclobutyl-N^2-methyl-1H-pyrrole-2,5-dicarboxamide]
IC50 (BRD4 BD1): ≥ 10 µM

SMILES: CNC(=O)c1[nH]c(C(=O)NC2CCC2)cc1OC(C)c1ccc(Cl)cn1 (single isomer, unassigned) [Example 33, 3-(1-(5-chloropyridin-2-yl)ethoxy)-N^5-cyclobutyl-N^2-methyl-1H-pyrrole-2,5-dicarboxamide]
Plasma Stability (% remaining at 120 minutes) Rat [2]: 85%

SMILES: CNC(=O)c1[nH]c(C(=O)N[C@H]2CC[C@H](O)CC2)cc1OC(C)c1ccccc1F (single isomer, unassigned) [Example 45]
IC50 (BRD4 BD2): 0.05 to 0.2 µM | IC50 (BRD4 BD1): ≥ 10 µM | Plasma Stability (% remaining at 120 minutes) Rat [2]: 88%

SMILES: CCNC(=O)c1cc(OC(C)c2ccc(Br)cc2)c(C(=O)NC)[nH]1 (single isomer, unassigned) [Example 49, 3-(1-(4-bromophenyl)ethoxy)-N^5-ethyl-N^2-methyl-1H-pyrrole-2,5-dicarboxamide]
Plasma Stability (% remaining at 120 minutes) Rat [2]: 90%

SMILES: CCNC(=O)c1cc(OC(C)c2ccc(I)cc2)c(C(=O)NC)[nH]1 (single isomer, unassigned) [Example 51, N^5-ethyl-3-(1-(4-iodophenyl)ethoxy)-N^2-methyl-1H-pyrrole-2,5-dicarboxamide]
Plasma Stability (% remaining at 120 minutes) Rat [2]: 93%

SMILES: CCNC(=O)c1cc(OC(C)c2c(F)cccc2F)c(C(=O)NC)[nH]1 (single isomer, unassigned) [Example 55, 3-(1-(2,6-difluorophenyl)ethoxy)-N^5-ethyl-N^2-methyl-1H-pyrrole-2,5-dicarboxamide]
IC50 (BRD4 BD2): > 10 µM | IC50 (BRD4 BD1): ≥ 10 µM | Plasma Stability (% remaining at 120 minutes) Rat [2]: 88%

SMILES: C#Cc1ccc(C(C)Oc2cc(C(=O)NCC)[nH]c2C(=O)NC)cc1 (single isomer, unassigned) [Example 70, N^5-ethyl-3-(1-(4-ethynylphenyl)ethoxy)-N^2-methyl-1H-pyrrole-2,5-dicarboxamide]
bioavailability [1]: 44% | Plasma Stability (% remaining at 120 minutes) Rat [2]: 92%

SMILES: CNC(=O)c1[nH]c(-c2ncc(C)[nH]2)cc1O[C@H](C)c1ccccc1 [Example 24, (R)—N-methyl-5-(5-methyl-1H-imidazol-2-yl)-3-(1-phenylethoxy)-1H-pyrrole-2-carboxamide]
BRD4 BD2% Activity Remaining @ 10 uM (BRD4 BD2; listed as 24 (2)): 78% | Fold selectivity (BRD4 BD2): X (Fold >2 and ≤50) | Fold selectivity (BRD4 BD2; listed as 24 (2)*): — (Fold ≥0 and ≤2)

SMILES: CCNC(=O)c1cc(OC(c2ccccc2)c2ccccc2)c(C(=O)NC)[nH]1 [Example 53, 3-(benzhydryloxy)-N^5-ethyl-N^2-methyl-1H-pyrrole-2,5-dicarboxamide]
Plasma Stability (% remaining at 120 minutes) Rat [2]: 91%

SMILES: CNC(=O)c1[nH]c(C(=O)NC2CC2)cc1O[C@@H](C)c1ccccc1F [Example 59, (S)—N^5-cyclopropyl-3-(1-(2-fluorophenyl)ethoxy)-N^2-methyl-1H-pyrrole-2,5-dicarboxamide]
IV T1/2 [1]: 66 min | PO F (%) [1]: 70% | Plasma Stability (% remaining at 120 minutes) Rat [2]: 50%

SMILES: CNC(=O)c1[nH]c(-c2ncc(C)[nH]2)cc1O[C@@H](C)c1ccc(Cl)cc1 [Example 69, (S)-3-(1-(4-chlorophenyl)ethoxy)-N-methyl-5-(5-methyl-1H-imidazol-2-yl)-1H-pyrrole-2-carboxamide]
Plasma Stability (% remaining at 120 minutes) Rat [2]: 83%

Other lines, results leading:

IV T1/2 [1]: 30 min | PO F (%) [1]: 65% | Plasma Stability (% remaining at 120 minutes) Rat [2]: 67%
SMILES: CNC(=O)c1[nH]c(C(=O)NC2CCC2)cc1OC(C)c1ccc(Cl)cc1F (single isomer, unassigned) [Example 35]

IV T1/2 [1]: 30 min | PO F (%) [1]: 58% | Plasma Stability (% remaining at 120 minutes) Rat [2]: 20%
SMILES: CNC(=O)c1[nH]c(C(=O)NC2CCC2)cc1OC(C)c1ccccc1F (single isomer, unassigned) [Example 43, N^5-cyclobutyl-3-(1-(2-fluorophenyl)ethoxy)-N^2-methyl-1H-pyrrole-2,5-dicarboxamide]

IC50 (BRD4 BD1): ≥ 10 µM
SMILES: CCNC(=O)c1cc(OC(C)c2c(C)cccc2C)c(C(=O)NC)[nH]1 (single isomer, unassigned) [Example 64, 3-(1-(2,6-dimethylphenyl)ethoxy)-N^5-ethyl-N^2-methyl-1H-pyrrole-2,5-dicarboxamide]

IC50 (BRD4 BD1): ≥ 10 µM
SMILES: CNC(=O)c1[nH]c(C(=O)N[C@H]2CC[C@H](O)CC2)cc1O[C@@H](C)c1ccnnc1 (single isomer, unassigned) [Example 92, N^5-(4-hydroxycyclohexyl)-N^2-methyl-3-(1-(pyridazin-4-yl)ethoxy)-1H-pyrrole-2,5-dicarboxamide]

Plasma Stability (% remaining at 120 minutes) Rat [2]: 93%
SMILES: CNC(=O)c1[nH]c(C(=O)NCC(F)(F)F)cc1O[C@@H](C)c1ccccc1 [Example 54]

Plasma Stability (% remaining at 120 minutes) Rat [2]: 81%
SMILES: CNC(=O)c1[nH]c(C(=O)NC(C)C)cc1O[C@@H](C)c1ccc(Cl)cc1 [Example 61, (S)-3-(1-(4-chlorophenyl)ethoxy)-N^5-isopropyl-N^2-methyl-1H-pyrrole-2,5-dicarboxamide]

bioavailability [1]: 8% | Plasma Stability (% remaining at 120 minutes) Rat [2]: 82%
SMILES: CNC(=O)c1[nH]c(C(=O)NC2CC2)cc1O[C@@H](C)c1ccc(Cl)cc1 [Example 62, (S)-3-(1-(4-chlorophenyl)ethoxy)-N^5-cyclopropyl-N^2-methyl-1H-pyrrole-2,5-dicarboxamide]

Plasma Stability (% remaining at 120 minutes) Rat [2]: 75%
SMILES: CNC(=O)c1[nH]c(-c2ncc(C)[nH]2)cc1O[C@@H](C)c1ccccc1F [Example 68, (S)-3-(1-(2-fluorophenyl)ethoxy)-N-methyl-5-(5-methyl-1H-imidazol-2-yl)-1H-pyrrole-2-carboxamide]

Plasma Stability (% remaining at 120 minutes) Rat [2]: 9%
SMILES: CCNC(=O)c1[nH]c(C(=O)NC)c(O[C@@H](C)c2ccccc2F)c1Br [Example 72, (S)-3-bromo-N^2-ethyl-4-(1-(2-fluorophenyl)ethoxy)-N^5-methyl-1H-pyrrole-2,5-dicarboxamide]

Fold selectivity (BRD4 BD2): X (Fold >2 and ≤50) | IC50 (BRD4 BD2): 1 to 10 µM | IC50 (BRD4 BD1): ≥ 10 µM
SMILES: CCNC(=O)c1[nH]c(C(=O)NC)c(O[C@@H](C)c2ccccc2F)c1C [Example 74]
